{
  "source": "patent US20260266848A1",
  "about": "“COMPOSITIONS AND METHODS FOR DIAGNOSING AND TREATING DYSTONIA” (Duke University, priority 2023, published 2026)",
  "tested_on": "DYT1 patient plasma",
  "experiment": "Whole plasma metabolomics (Biocrates MxP Quant 500 Kit), DYT1 vs Healthy Controls",
  "details": "DYT1-Dystonia vs Healthy Control",
  "excerpt": "Duke Proteomics and Metabolomics Core Facility (DPMCF) also analyzed metabolites from 41 plasma samples using the Biocrates MxP Quant 500 Kit. Plasma from 14 subjects with DYT1 and 27 Healthy Controls was utilized.",
  "data": [
    {"smiles": "NCCCCC(=O)O", "note": "[5-AVA_Aminoacids Related]", "values": [
      {"measurement": "-LogP", "value": 2.862}
    ]},
    {"smiles": "N[C@@H](CSSC[C@H](N)C(=O)O)C(=O)O", "note": "[Cystine_Aminoacids Related]", "values": [
      {"measurement": "-LogP", "value": 2.546}
    ]},
    {"smiles": "Cc1ccc(OS(=O)(=O)O)cc1", "note": "[p-Cresol-SO4_Cresols]", "values": [
      {"measurement": "-LogP", "value": 1.433}
    ]},
    {"smiles": "CCCCCCCCCCCCCCCCCCCCCCCCCCCC(=O)OC[C@@H](O)COP(=O)([O-])OCC[N+](C)(C)C", "note": "[lysoPC a C28:0_Glycerophospholipids]", "values": [
      {"measurement": "-LogP", "value": 1.585}
    ]},
    {"smiles": "N[C@@H](CC(=O)O)C(=O)O", "note": "[Asp_Aminoacids]", "values": [
      {"measurement": "-LogP", "value": 1.99}
    ]},
    {"smiles": "CCCCCCCCCCCCCCCCCCCCCCCCCC(=O)OC[C@@H](O)COP(=O)([O-])OCC[N+](C)(C)C", "note": "[lysoPC a C26:0_Glycerophospholipids]", "values": [
      {"measurement": "-LogP", "value": 2.027}
    ]}
  ]
}
